Measurements reported in patent CN112843052A, “新型表观遗传因子抑制剂2800z在制备抗肝癌药物增敏剂中的应用” (Hunan Normal University, priority 2021, dated 2021).

Experiments:
HEPG2 cells [HEPG2细胞] [1] = assay: In vitro cytotoxicity experiment (体外细胞毒性实验); assay type: cell-based; details: sorafenib 4 uM, 2800Z 60 uM, each alone or combined, 12, 24, 36 h
[2] = test system: mouse liver cancer (subcutaneous HEPG2 cells in nude mice) [小鼠肝癌]; assay: In vivo anti-liver-cancer experiment (体内抗肝癌实验), subcutaneous HEPG2 tumours in nude mice; details: 14 days, i.p. three times per week for two weeks
HEPG2 cells [HEPG2细胞] [3] = details: known IC50 value of the chemotherapeutic drug; cell line not printed in the clause; cited from earlier work
[4] = sorafenib 1 mg/kg, 2800Z 4 mg/kg, each alone or combined

In the case of `CNC(=O)c1cc(Oc2ccc(NC(=O)Nc3ccc(Cl)c(C(F)(F)F)c3)cc2)ccn1` [索拉菲尼, Sorafenib], the “cytotoxicity (in words)” value (HEPG2 cells [HEPG2细胞] [1]) is reported as “细胞毒性较差”, the “liver cancer volume compared with the untreated group (in words)” value ([2]; sorafenib 1 mg/kg or 2800Z 4 mg/kg) is reported as “与未给药组的结果相近” and the “inhibition of mouse liver cancer (in words)” value [2, 4] is reported as “抑制作用较弱”. For the same molecule, the “liver cancer (tumour) volume” value [2, 4] was ~1000 mm3 and the IC50 (HEPG2 cells [HEPG2细胞] [3]) was 10 µM.
